Reference: US11535607B2, “Isoindolines as HDAC inhibitors” (Valo Health, Inc., priority 2018, dated 2022)
Where a name gives a salt, the structure may show the parent alone.

Target: full-length human HDAC11 (Homo sapiens (Human), UniProt Q96DB2)
Test: Probe binding HDAC11 time resolved fluorescence (TRF) assay
Conditions: Table 2, read-out: HDAC11 IC50 Range
Experimental: The probe binding HDAC11 assay was performed using a time resolved fluorescence (TRF) assay format. Recombinant N-terminal GST tag full-length human HD AC 11 was expressed and purified from baculovirus in Sf9 insect cells (SignalChem, #H93-30G-1000). […] 4 μL of 2× probe and 2× anti-GST Terbium (Cisbio, #61GSTXLB) was added to assay plates followed by 4 μL of 2×HDAC11.
Data from HD AC 11 Assays were reported as percent inhibition (inh) compared with control wells based on the following equation: % inh=1−((FLU−AveLow)/(AveHigh−AveLow)) where FLU=measured time resolved fluorescence. AveLow=average time resolved fluorescence of no enzyme control (n=32). AveHigh=average time resolved fluorescence of DMSO control (n=32). IC50 values were determined by curve fitting of the standard 4 parameter logistic fitting algorithm included in the Activity Base software package: IDBS XE Designer Model205. Data is fitted using the Levenburg Marquardt algorithm.

full-length human HDAC11, sequence (Q96DB2 whole entry): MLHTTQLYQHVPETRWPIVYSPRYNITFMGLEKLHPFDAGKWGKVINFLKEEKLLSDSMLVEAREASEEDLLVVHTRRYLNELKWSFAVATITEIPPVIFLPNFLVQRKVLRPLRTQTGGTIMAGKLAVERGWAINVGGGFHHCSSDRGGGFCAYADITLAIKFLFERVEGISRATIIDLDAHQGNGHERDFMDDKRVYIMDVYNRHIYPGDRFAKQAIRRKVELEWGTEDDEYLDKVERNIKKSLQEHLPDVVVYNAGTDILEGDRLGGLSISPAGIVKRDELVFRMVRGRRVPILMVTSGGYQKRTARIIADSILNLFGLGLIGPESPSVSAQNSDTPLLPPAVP

Row | SMILES | IC50 [nM]
1 | CC1(C)c2cccc(C(=O)NO)c2CN1C(=O)c1ccc(C(F)(F)F)cc1 [Compound 28-1, N-hydroxy-1,1-dimethyl-2-(4-(trifluoromethyl)benzoyl)isoindoline-4-carboxamide] | > 1000
2 | CC1(C)c2cccc(C(=O)NO)c2CN1C(=O)c1cccc(C(F)(F)F)c1 [Compound 28-2, N-hydroxy-1,1-dimethyl-2-(3-(trifluoromethyl)benzoyl)isoindoline-4-carboxamide] | > 1000
3 | CCC(C(=O)N1Cc2cccc(C(=O)NO)c2C1)c1ccc(OC)cc1 (stereo not shown) [Compound 28-3, N-hydroxy-2-(2-(4-methoxyphenyl)butanoyl)isoindoline-4-carboxamide] | > 1000
4 | CC1(C)c2cccc(C(=O)NO)c2CN1C(=O)Nc1ccc(C(F)(F)F)cc1 [Compound 29-1, N4-hydroxy-1,1-dimethyl-N2-(4-(trifluoromethyl)phenyl)isoindoline-2,4-dicarboxamide] | < 500
5 | CC1(C)c2cccc(C(=O)NO)c2CN1C(=O)Nc1ccc(C(F)(F)F)nc1 [Compound 30-1, N4-hydroxy-1,1-dimethyl-N2-(6-(trifluoromethyl)pyridin-3-yl)isoindoline-2,4-dicarboxamide] | 500 to 1000
6 | CC1(C)c2cccc(C(=O)NO)c2CN1C(=O)Nc1ccc(C(F)(F)F)cn1 [Compound 30-2, N4-hydroxy-1,1-dimethyl-N2-(5-(trifluoromethyl)pyridin-2-yl)isoindoline-2,4-dicarboxamide] | > 1000
7 | CC1(C)c2cccc(C(=O)NO)c2CN1C(=O)Nc1ccnc(C(F)(F)F)c1 [Compound 30-3, N4-hydroxy-1,1-dimethyl-N2-(2-(trifluoromethyl)pyridin-4-yl)isoindoline-2,4-dicarboxamide] | < 500
8 | CC1(C)c2cccc(C(=O)NO)c2CN1C(=O)Nc1cncc(C(F)(F)F)c1 [Compound 30-4, N4-hydroxy-1,1-dimethyl-N2-(5-(trifluoromethyl)pyridin-3-yl)isoindoline-2,4-dicarboxamide] | > 1000
9 | CC1(C)c2cccc(C(=O)NO)c2CN1C(=O)Nc1cc(C(F)(F)F)ccn1 [Compound 30-5, N4-hydroxy-1,1-dimethyl-N2-(4-(trifluoromethyl)pyridin-2-yl)isoindoline-2,4-dicarboxamide] | < 500
10 | CC1(C)c2cccc(C(=O)NO)c2CN1C(=O)Nc1cccc(C(F)(F)F)n1 [Compound 30-6, N4-hydroxy-1,1-dimethyl-N2-(6-(trifluoromethyl)pyridin-2-yl)isoindoline-2,4-dicarboxamide] | > 1000
11 | CC1(C)c2cccc(C(=O)NO)c2CN1C(=O)Nc1nc2ccccc2o1 [Compound 30-7, N2-(benzo[d]oxazol-2-yl)-N4-hydroxy-1,1-dimethylisoindoline-2,4-dicarboxamide] | > 1000
12 | CC1(C)c2cccc(C(=O)NO)c2CN1C(=O)Nc1cc2c(cn1)CCCC2 [Compound 31-1, N4-hydroxy-1,1-dimethyl-N2-(5,6,7,8-tetrahydroisoquinolin-3-yl)isoindoline-2,4-dicarboxamide] | 500 to 1000
13 | COc1ccc(CN2Cc3c(C(=O)NO)cccc3C2(C)C)cc1 [Compound 32-1, N-hydroxy-2-(4-methoxybenzyl)-1,1-dimethylisoindoline-4-carboxamide hydrochloride] | > 1000
14 | CC1(C)c2ccnc(C(=O)NO)c2CN1c1ccc(C(F)(F)F)cn1 [Compound 33-1, N-hydroxy-1,1-dimethyl-2-(5-(trifluoromethyl)pyridin-2-yl)-2,3-dihydro-1H-pyrrolo [3,4-c]pyridine-4-carboxamide] | 500 to 1000
15 | O=C(NO)c1cccc2c1CN(c1nc3cc(C(F)(F)F)c(-c4ccccc4)cc3[nH]1)C2 [Compound 34-1, N-hydroxy-2-(5-phenyl-6-(trifluoromethyl)-1H-benzo[d]imidazol-2-yl)isoindoline-4-carboxamide] | < 500
16 | O=C(NO)c1cccc2c1CN(c1nc3cc(C(F)(F)F)cc(-c4ccccc4)c3[nH]1)C2 [Compound 35-1, N-hydroxy-2-(7-phenyl-5-(trifluoromethyl)-1H-benzo[d]imidazol-2-yl)isoindoline-4-carboxamide] | 500 to 1000
